One assay has as its target T1, 5-HT3A receptor L126C (Homo sapiens, UniProt P46098, L121C).
T1 construct: expressed in transfected cells; host or cells: HEK 293
Put plainly: Saturation binding of [^3H]VUF10166 at 5-HT3A receptor mutant. Particulars: L126C Kd versus wild type. Here is the method:
(§1) Mutagenesis was performed using the QuikChange method (Agilent Technologies Inc., California, USA) on human 5-HT3A cDNA (accession number: P46098) cloned into pcDNA3.1 (Invitrogen, Paisley, UK). Cysteine residues were substituted for amino acids throughout each of the binding loops A–E (Fig. 1). To facilitate comparisons with previous work, we use the numbering of the equivalent residues in the mouse 5-HT3A subunit; for human numbering 5 should be subtracted from each residue number.
(§2) All data were analysed using GraphPad Prism 4.03. […].

For the next assay, the target named is T2, 5-HT3A receptor Y153C (Homo sapiens, UniProt P46098, Y148C).
T2 construct: expressed in transfected cells; host or cells: HEK 293
T2 sequence (P46098 24-478 Y148C): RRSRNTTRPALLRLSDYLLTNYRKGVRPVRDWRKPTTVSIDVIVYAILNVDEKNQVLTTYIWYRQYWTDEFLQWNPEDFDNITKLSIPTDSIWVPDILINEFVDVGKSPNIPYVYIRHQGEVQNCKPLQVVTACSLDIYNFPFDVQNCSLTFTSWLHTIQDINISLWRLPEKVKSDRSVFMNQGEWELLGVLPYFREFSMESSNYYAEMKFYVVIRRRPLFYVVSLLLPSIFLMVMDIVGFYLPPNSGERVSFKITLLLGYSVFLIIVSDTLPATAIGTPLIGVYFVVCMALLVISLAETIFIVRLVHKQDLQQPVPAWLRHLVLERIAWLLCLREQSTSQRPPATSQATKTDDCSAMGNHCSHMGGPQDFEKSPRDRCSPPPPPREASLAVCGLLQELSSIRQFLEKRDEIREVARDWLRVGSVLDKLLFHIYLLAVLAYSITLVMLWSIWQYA
The description is as above. Conditions: Y153C Kd versus wild type. Here is the method: as §1, §2

The target in another assay is T3, 5-HT3A receptor F226C (Homo sapiens, UniProt P46098, F221C).
T3 construct: expressed in transfected cells; host or cells: HEK 293
T3 sequence (P46098 24-478 F221C): as the sequence (P46098 24-478 Y148C) above, with C125Y, F198C counted along it
The description is as above. Particulars: F226C Kd versus wild type. As to the method: as §1, §2

Another assay deals with α7 nACh receptors (Homo sapiens, UniProt P36544). Conditions: unlabelled VUF10166, ref Thompson et al., 2012; cited from earlier work.
Sequence of α7 nACh receptors (P36544 23-502): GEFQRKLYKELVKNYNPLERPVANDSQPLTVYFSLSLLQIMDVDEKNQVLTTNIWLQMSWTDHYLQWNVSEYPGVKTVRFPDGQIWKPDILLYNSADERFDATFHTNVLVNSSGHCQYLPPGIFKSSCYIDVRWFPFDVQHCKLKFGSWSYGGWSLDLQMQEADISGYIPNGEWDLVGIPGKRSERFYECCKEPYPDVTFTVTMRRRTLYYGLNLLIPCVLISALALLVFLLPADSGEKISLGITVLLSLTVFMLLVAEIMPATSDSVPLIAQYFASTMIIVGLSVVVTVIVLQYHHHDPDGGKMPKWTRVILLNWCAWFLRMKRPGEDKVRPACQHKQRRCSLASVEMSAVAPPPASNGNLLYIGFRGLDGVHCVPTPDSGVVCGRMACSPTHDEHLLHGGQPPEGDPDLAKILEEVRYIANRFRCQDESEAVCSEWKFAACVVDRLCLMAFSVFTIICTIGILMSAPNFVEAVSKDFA
Assay [1] deals with T4, 5-HT3A receptors (Homo sapiens, UniProt P46098).
T4 sequence (P46098 24-478): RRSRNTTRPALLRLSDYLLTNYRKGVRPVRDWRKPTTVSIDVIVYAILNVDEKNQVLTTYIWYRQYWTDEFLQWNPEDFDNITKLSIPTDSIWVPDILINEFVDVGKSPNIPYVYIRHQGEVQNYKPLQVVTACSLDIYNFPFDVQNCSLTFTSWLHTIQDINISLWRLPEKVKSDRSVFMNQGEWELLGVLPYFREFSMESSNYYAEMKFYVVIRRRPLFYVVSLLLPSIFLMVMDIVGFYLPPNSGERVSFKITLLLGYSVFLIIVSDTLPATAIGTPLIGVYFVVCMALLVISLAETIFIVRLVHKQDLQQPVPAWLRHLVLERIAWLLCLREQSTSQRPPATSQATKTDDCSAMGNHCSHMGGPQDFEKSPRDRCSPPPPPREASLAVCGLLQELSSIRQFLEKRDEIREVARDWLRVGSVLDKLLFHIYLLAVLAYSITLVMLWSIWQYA
Put plainly: biochemical. The assay is classed as binding. The arrangement: expressed in transfected cells; host or cells: HEK 293. Particulars: 5-HT3A; tritiated ligand, transfected HEK 293 cells, 0 °C; read-out: Kd (nM) saturation.

In assay [2] the target is T4, 5-HT3A receptors. The assay can be described thus: Kinetic measurements (association, dissociation) at 5-HT3A receptors. It is filed as binding. Also noted: expressed in transfected cells; host or cells: HEK 293.
For another assay, the system named is 5-HT3 receptors. Also noted: method as in Thompson et al., 2012. Conditions: at μM concentrations; ref Thompson et al., 2012; cited from earlier work.
Assay [3] has as its target T5, 5-HT3AB receptors (Homo sapiens, UniProt O95264+P46098).
T5 sequence (P46098 24-478): T4 sequence (P46098 24-478)
T5 sequence (O95264 22-441): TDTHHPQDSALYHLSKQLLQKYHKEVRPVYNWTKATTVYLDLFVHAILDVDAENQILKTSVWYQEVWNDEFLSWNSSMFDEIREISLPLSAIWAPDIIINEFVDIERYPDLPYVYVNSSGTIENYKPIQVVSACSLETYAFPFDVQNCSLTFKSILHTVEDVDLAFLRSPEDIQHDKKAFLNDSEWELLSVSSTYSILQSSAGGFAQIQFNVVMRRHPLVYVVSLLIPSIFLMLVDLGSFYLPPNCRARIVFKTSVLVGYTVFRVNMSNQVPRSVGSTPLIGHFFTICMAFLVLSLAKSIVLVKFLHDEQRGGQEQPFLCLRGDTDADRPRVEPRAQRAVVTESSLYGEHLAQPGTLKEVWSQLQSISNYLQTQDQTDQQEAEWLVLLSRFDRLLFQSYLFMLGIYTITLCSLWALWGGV
The assay can be described thus: Kinetic measurements (association, dissociation) at 5-HT3AB receptors. The assay is classed as binding. Also noted: expressed in transfected cells; host or cells: HEK 293. Particulars: for koff: from kobs plot; for Kd: from kinetic rates, Equ (4), read-out: Kd(nM) (kon/koff).

Assay [4] has as its target 5-HT3A receptors. Also noted: method as in Thompson et al., 2012. Particulars: ref Thompson et al., 2012, cited from earlier work.
Assay [5] deals with T5, 5-HT3AB receptors. Put plainly: biochemical. Particulars: Ki (nM) competition.
The target in assay [6] is T4, 5-HT3A receptors. Put plainly: biochemical.
Assay [7] deals with T4, 5-HT3A receptors. Conditions: competition with 0.7 nM [^3H]BRL43694.
Assay [8] addresses T4, 5-HT3A receptors. The assay can be described thus: Competition binding with [^3H]VUF10166 at 5-HT3A receptors.
In assay [9] the target is T5, 5-HT3AB receptors. The assay can be described thus: Competition binding with [^3H]VUF10166 at 5-HT3AB receptors.
Assay [10] addresses T5, 5-HT3AB receptors. Particulars: competition with 0.7 nM [^3H]BRL43694.

Where “and” joins values, the source holds several entries; their conditions need not be identical. Equal values may be shown once. Read-outs that look alike come from different tables or passages of the source.

Results on two compounds are retold here after PMC4220016, “The binding characteristics and orientation of a novel radioligand with distinct properties at 5-HT3A and 5-HT3AB receptors” (Neuropharmacology, 2014).

T1 sequence (P46098 24-478 L121C): as the sequence (P46098 24-478 Y148C) above, with L98C, C125Y counted along it

As for `CN1CCN(c2nc3ccccc3nc2Cl)CC1` [VUF10166, 2-chloro-3-(4-methylpiperazin-1-yl)quinoxaline], the Fold change is on record as approximately 4 at 5-HT3A receptor L126C, 10 at 5-HT3A receptor Y153C and 7 on 5-HT3A receptor F226C. Besides, the “competition with [^3H]epibatidine (in words)” value at α7 nACh receptors is reported as “does not compete”. Moreover, the Kd is 0.18 ± 0.04 nM at 5-HT3A receptors [1]; 0.16 nM on 5-HT3A receptors [2] (calculated from kinetic rates, Equ (4), read-out: Kd(nM) (kon/koff)); 0.38 nM at 5-HT3AB receptors [3] (first component); 22.4 nM at 5-HT3AB receptors [3] (second component (>3 nM)). Besides, the koff on 5-HT3A receptors [2] (intercept of plot of kobs versus radioligand concentration, read-out: koff (converted)) was 0.000167 s⁻¹; on 5-HT3AB receptors [3] (first component, [^3H]VUF10166 < 3 nM, read-out: koff (converted)), 0.0004 s⁻¹; on 5-HT3AB receptors [3] (second component, [^3H]VUF10166 > 3 nM), 0.0027 s⁻¹; at 5-HT3AB receptors [3] (second component, [^3H]VUF10166 > 3 nM, read-out: koff (converted)) it was 0.00267 s⁻¹. Also, the on-rate constant (kon) at 5-HT3A receptors [2] (slope of plot of kobs versus radioligand concentration, read-out: kon (converted)) was 1.04e+06 M⁻¹ s⁻¹; on 5-HT3AB receptors [3] (first component of two site fit, [^3H]VUF10166 < 3 nM) it was 1.02e+06 M⁻¹ s⁻¹; on 5-HT3AB receptors [3] (second component of two site fit, [^3H]VUF10166 > 3 nM) it was 120000 M⁻¹ s⁻¹. For the same compound, in the assay with 5-HT3 receptors, the “agonist activity (in words)” value is reported as “low efficacy partial agonist”. The pKi on 5-HT3A receptors [4] (5-HT3A receptors) was approximately 10. In addition, the “affinity at 5-HT3A relative to 5-HT3AB receptors” value in the assay on 5-HT3A receptors [4] is approximately 100 fold. Further, the Ki on 5-HT3AB receptors [5] is 37 nM and 36.7 nM; at 5-HT3A receptors [6], 0.24 ± 0.11 nM.
Turning to `NC(N)=NC(N)=Nc1cccc(Cl)c1` [mCPBG, meta-chlorophenylbiguanide], the “pIC50 5-HT3A” value was 6.88 ± 0.13 (7) at 5-HT3A receptors [7] and 7.49 ± 0.06 (4) at 5-HT3A receptors [8] (competition with 0.2 nM [^3H]VUF10166). For the same compound, the “inhibition of specific [^3H]VUF10166 binding (in words)” value at 5-HT3A receptors [8] (5-HT3A) and on 5-HT3AB receptors [9] (5-HT3AB) was “inhibited” throughout. For the same compound, the “pIC50 5-HT3AB” value is 6.07 ± 0.20 (5) at 5-HT3AB receptors [9] (competition with 0.6 nM [^3H]VUF10166) and 6.64 ± 0.12 (5) on 5-HT3AB receptors [10].

By koff is commonly meant a measure of how fast the partners let go of each other. Broadly, the kon is the rate constant with which the complex forms. In general, pKi refers to the Ki on a negative log10 scale, so that one unit is a factor of ten. What is called Ki is the dissociation constant of the complex between target and ligand, obtained from inhibition or displacement. Read a high Ki as weaker binding.
